Reference: patent US10005767B2, “Compositions and methods for inhibition of the JAK pathway” (Rigel Pharmaceuticals, Inc., priority 2009, dated 2018)
Where a name gives a salt, the structure may show the parent alone.

The compounds below were run on human primary T-cells, IL-2 stimulated proliferation (JAK-1 and JAK-3 dependent; reported as JAK3 activity) (assay: Human primary T-cell proliferation stimulated by IL-2 (Example 3)). Conditions: Homo sapiens, T-cell, tested under conditions described in Example 3 (IL-2 stimulated human primary T-cell proliferation); read-out: ability to inhibit JAK3 activity, IC50 range (Table V).
Type: cell-based
Procedure, shortened: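 Peripheral-blood human T-cells pre-activated via TCR/CD28, IL-2-starved overnight, then cultured 72 h at 37 °C with compound in Yssel's medium containing IL-2 (80 U/mL in cell suspension). Proliferation read as viable-cell ATP by CellTiter-Glo luminescence; reduction versus control taken as JAK pathway inhibition.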

`Cc1cnc(Nc2ccc(N3CCCN(C)CC3)nc2)nc1Nc1ccc2oc(=O)[nH]c2c1` [II-3, N4-(benzo[d]oxazol-2(3H)-on-5-yl)-N2-(6-(4-methyl-1,4-diazepan-1-yl)pyridin-3-yl)-5-methylpyrimidine-2,4-diamine] and `Cc1cnc(Nc2ccc(N3CCN(C)CC3)nc2)nc1Nc1cc(C)c2oc(=O)[nH]c2c1` [II-72, 7-methyl-5-(5-methyl-2-(6-(4-methylpiperazin-1-yl)pyridin-3-ylamino)pyrimidin-4-ylamino)benzo[d]oxazol-2(3H)-one] cannot be ordered by IC50: < 0.5 µM for the first, < 0.5 µM for the second.

First: Cc1cnc(Nc2ccc(OC(F)(F)F)c(C(F)(F)F)c2)nc1Nc1ccc2oc(=O)[nH]c2c1 [Compound I-161, 5-[5-Methyl-2-(4-trifluoromethoxy-3-trifluoromethyl-phenylamino)-pyrimidin-4-ylamino]-3H-benzooxazol-2-one]
Second: Cc1cnc(Nc2cc(Cl)c(F)c(C(F)(F)F)c2)nc1Nc1ccc2oc(=O)[nH]c2c1 [Compound I-230, 5-(2-(3-chloro-4-fluoro-5-(trifluoromethyl)phenylamino)-5-methylpyrimidin-4-ylamino)benzo[d]oxazol-2(3H)-one]
The IC50 of the first is lower: < 0.5 µM for the first, 0.5 to 5 µM for the second.

`Cc1cnc(Nc2ccc(N3CCC[C@@H](N(C)C(=O)OC(C)(C)C)C3)nc2)nc1Nc1ccc2oc(=O)[nH]c2c1` [II-91, (R)-tert-butyl methyl(1-(5-(5-methyl-4-(2-oxo-2,3-dihydrobenzo[d]oxazol-5-ylamino)pyrimidin-2-ylamino)pyridin-2-yl)piperidin-3-yl)carbamate] and `Cc1cnc(Nc2ccc(N3CCN(C(C)C)[C@H](C)C3)nc2)nc1Nc1ccc2oc(=O)[nH]c2c1` [II-70, (R)-5-(2-(6-(4-isopropyl-3-methylpiperazin-1-yl)pyridin-3-ylamino)-5-methylpyrimidin-4-ylamino)benzo[d]oxazol-2(3H)-one] cannot be ordered by IC50: < 0.5 µM for the first, < 0.5 µM for the second.

First: COc1cc(Nc2ncc(C)c(Nc3cc(C)c4oc(=O)[nH]c4c3)n2)cc(C(F)(F)F)c1 [Compound I-427, 5-(2-(3-methoxy-5-(trifluoromethyl)phenylamino)-5-methylpyrimidin-4-ylamino)-7-methylbenzo[d]oxazol-2(3H)-one]
Second: Cc1cnc(Nc2cc(C)c(C)c(C)c2)nc1Nc1cc(C)c2oc(=O)[nH]c2c1 [Compound I-475, 7-methyl-5-(5-methyl-2-(3,4,5-trimethylphenylamino)pyrimidin-4-ylamino)benzo[d]oxazol-2(3H)-one]
The IC50 of the first is higher: > 10 µM for the first, < 0.5 µM for the second.

`Cc1cnc(Nc2ccc(C#N)cc2)nc1Nc1ccc2oc(=O)[nH]c2c1` [Compound I-27, N4-(benzo[d]oxazol-2(3H)-on-5-yl)-N2-(4-cyanophenyl)-5-methylpyrimidine-2,4-diamine] and `Cc1cnc(Nc2ccc(O)c(Cl)c2)nc1Nc1ccc2oc(=O)[nH]c2c1` [Compound I-424, 5-[2-(3-Chloro-4-hydroxy-phenylamino)-5-methyl-pyrimidin-4-ylamino]-3H-benzooxazol-2-one] cannot be ordered by IC50: < 0.5 µM for the first, < 0.5 µM for the second.

`Cc1ccc(Nc2ncc(C)c(Nc3ccc4oc(=O)[nH]c4c3)n2)cc1C(F)F` [Compound I-438, 5-(2-(3-(difluoromethyl)-4-methylphenylamino)-5-methylpyrimidin-4-ylamino)benzo[d]oxazol-2(3H)-one] and `COc1cc(Nc2ncc(C)c(Nc3ccc4oc(=O)[nH]c4c3)n2)cc(C)c1F` [Compound I-432, 5-(2-(4-fluoro-3-methoxy-5-methylphenylamino)-5-methylpyrimidin-4-ylamino)benzo[d]oxazol-2(3H)-one] cannot be ordered by IC50: < 0.5 µM for the first, < 0.5 µM for the second.

Compared with `CN1CCN(c2ccc(Nc3ncc(F)c(Nc4ccc5oc(=O)n(C)c5c4)n3)cn2)CC1` [II-24, N2-(6-(4-methylpiperazin-1-yl)pyridin-3-yl)-N4-(3-methyl-2-oxo-2,3-dihydrobenzo[d]oxazol-5-yl)-5-fluoropyrimidine-2,4-diamine], `Cc1cnc(Nc2ccc(N3C[C@@H](C)NC[C@@H]3C)nc2)nc1Nc1ccc2oc(=O)[nH]c2c1` (relative stereo) [II-130, N2-[2-(trans-2,5-dimethylpiperazino)pyridin-5-yl]-5-methyl-N4-(2-oxo-2,3-dihydro-1,3-benzoxazol-5-yl)-2,4-pyrimidinediamine] is lower in IC50: 0.5 to 5 µM for the first, < 0.5 µM for the second.

`Cc1cnc(Nc2cnc(N3C[C@@H]4C[C@H]3CN4C)c(C(F)(F)F)c2)nc1Nc1ccc2oc(=O)[nH]c2c1` [II-109, N4-(benzo[d]oxazolin-2(3H)-one-5-yl)-5-methyl-N2-[2-((1S,4S)-5-methyl-2,5-diazabicyclo[2.2.1]heptan-2-yl)-3-trifluoromethylpyridine-5-yl]-2,4-pyrimidinediamine] and `Cc1cnc(Nc2cnc(N3CC4CN(C(=O)C5CC5)CC4C3)c(F)c2)nc1Nc1ccc2oc(=O)[nH]c2c1` (stereo not drawn) [II-53, 5-{2-[6-(5-Cyclopropanecarbonyl-hexahydro-pyrrolo[3,4-c]pyrrol-2-yl)-5-fluoro-pyridin-3-ylamino]-5-methyl-pyrimidin-4-ylamino}-3H-benzooxazol-2-one] cannot be ordered by IC50: < 0.5 µM for the first, < 0.5 µM for the second.

`Cc1cnc(Nc2cccc(C(C)N3CCCCC3)c2)nc1Nc1ccc2oc(=O)[nH]c2c1` (stereo not drawn) [Compound I-215, 5-(5-methyl-2-(3-(1-(piperidin-1-yl)ethyl)phenylamino)pyrimidin-4-ylamino)benzo[d]oxazol-2(3H)-one] and `Cc1cnc(Nc2cc(F)cc(N3CCOCC3)c2)nc1Nc1ccc2oc(=O)[nH]c2c1` [Compound I-240, 5-(2-(3-fluoro-5-morpholinophenylamino)-5-methylpyrimidin-4-ylamino)benzo[d]oxazol-2(3H)-one] cannot be ordered by IC50: < 0.5 µM for the first, < 0.5 µM for the second.

Same assay, conditions: tested under conditions described in Example 3 (IL-2 stimulated human primary T-cell proliferation); read-out: ability to inhibit JAK3 activity, IC50 range (Table V)

`Cc1cnc(Nc2cc(C)c(C)c(C)c2)nc1Nc1ccc2oc(=O)[nH]c2c1` [Compound I-365, N2-(3,4,5-trimethyl)phenyl-5-methyl-N4-(2-oxo-2,3-dihydro-1,3-benzoxazol-5-yl)-2,4-pyrimidinediamine] and `Cc1cnc(Nc2cc(C)c(Cl)c(C)c2)nc1Nc1ccc2oc(=O)[nH]c2c1` [Compound I-394, N2-(4-chloro-3,5-dimethyl)phenyl-5-methyl-N4-(2-oxo-2,3-dihydro-1,3-benzoxazol-5-yl)-2,4-pyrimidinediamine] cannot be ordered by IC50: < 0.5 µM for the first, < 0.5 µM for the second.

`Cc1cnc(Nc2cccc(S(N)(=O)=O)c2)nc1Nc1ccc2[nH]c(=O)oc2c1` [Compound I-98, N2-((3-aminosulfonyl)phenyl)-N4-(2-oxo-2,3-dihydrobenzo[d]oxazol-6-yl)-5-methylpyrimidine-2,4-diamine] and `Cc1cnc(Nc2cccc(S(N)(=O)=O)c2)nc1Nc1ccc2oc(=O)n(C)c2c1` [Compound I-67, N2-((3-aminosulfonyl)phenyl)-N4-(3-methyl-2-oxo-2,3-dihydrobenzo[d]oxazol-5-yl)-5-methylpyrimidine-2,4-diamine] cannot be ordered by IC50: < 0.5 µM for the first, < 0.5 µM for the second.

First: Cc1cnc(Nc2ccc(C#N)cc2)nc1Nc1ccc2[nH]c(=O)[nH]c2c1 [Compound I-29, N4-(benzimidazolin-2-on-5-yl)-N2-(4-cyanophenyl)-5-methylpyrimidine-2,4-diamine]
Second: Cc1cnc(Nc2ccc(S(C)(=O)=O)cc2)nc1Nc1ccc2[nH]c(=O)oc2c1 [Compound I-101, N2-((4-methylsulfonyl)phenyl)-N4-(2-oxo-2,3-dihydrobenzo[d]oxazol-6-yl)-5-methylpyrimidine-2,4-diamine]
The IC50 of the first is higher: > 10 µM for the first, < 0.5 µM for the second. The second is the more potent here.

`Cc1cnc(Nc2cnc(N3CCN(C)CC3)c(C)c2)nc1Nc1ccc2[nH]c(=O)[nH]c2c1` [II-27, N4-(benzimidazolin-2-on-5-yl)-N2-[3-methyl-2-(4-methylpiperazin-1-yl)pyridin-5-yl]-5-methylpyrimidine-2,4-diamine] and `Cc1cnc(Nc2ccc3c(c2)OCCO3)nc1Nc1ccc2oc(=O)[nH]c2c1` [IV-37, N2-(3,4-ethylenedioxy)phenyl-5-methyl-N4-(2-oxo-2,3-dihydro-1,3-benzoxazol-5-yl)-2,4-pyrimidinediamine] cannot be ordered by IC50: < 0.5 µM for the first, < 0.5 µM for the second.

`Cc1cnc(Nc2cccc(OC(C)(C)C(N)=O)c2)nc1Nc1ccc2oc(=O)[nH]c2c1` [Compound I-335, N2-[3-(1-aminocarbonyl-1-methyl)ethoxy]phenyl-5-methyl-N4-(2-oxo-2,3-dihydro-1,3-benzoxazol-5-yl)-2,4-pyrimidinediamine] and `Cc1cnc(Nc2cccc(NS(C)(=O)=O)c2)nc1Nc1ccc2oc(=O)[nH]c2c1` [Compound I-55, N4-(benzo[d]oxazol-2(3H)-on-5-yl)-N2-(3-methylsulfonylamino)phenyl)-5-methylpyrimidine-2,4-diamine formate salt] cannot be ordered by IC50: < 0.5 µM for the first, < 0.5 µM for the second.

`Cc1cnc(Nc2cc(F)cc(OC(F)F)c2)nc1Nc1ccc2oc(=O)[nH]c2c1` [Compound I-401, N2-(3-difluoromethoxy-5-fluoro)phenyl-5-methyl-N4-(2-oxo-2,3-dihydro-1,3-benzoxazol-5-yl)-2,4-pyrimidinediamine] and `Cc1cnc(Nc2cc(Cl)c(OC(F)F)c(Cl)c2)nc1Nc1ccc2oc(=O)[nH]c2c1` [Compound I-348, N2-(3,5-dichloro-4-difluoromethoxy)phenyl-5-methyl-N4-(2-oxo-2,3-dihydro-1,3-benzoxazol-5-yl)-2,4-pyrimidinediamine] cannot be ordered by IC50: < 0.5 µM for the first, < 0.5 µM for the second.

`CS(=O)(=O)c1ccc(Nc2ncc(F)c(Nc3ccc4oc(=O)[nH]c4c3)n2)cc1` [Compound I-21] and `COC(=O)c1ccc(Nc2ncc(C)c(Nc3ccc4oc(=O)[nH]c4c3)n2)cc1OC` [Compound I-336, N2-(3-methoxy-4-methoxycarbonyl)phenyl-5-methyl-N4-(2-oxo-2,3-dihydro-1,3-benzoxazol-5-yl)-2,4-pyrimidinediamine] cannot be ordered by IC50: < 0.5 µM for the first, < 0.5 µM for the second.

Work on `Cc1cnc(Nc2cc(C)c(C)c(C)c2)nc1Nc1ccc2oc(=O)n(COP(=O)(OC(C)(C)C)OC(C)(C)C)c2c1` [Compound I-405, N4-{3-[bis(1,1-dimethylethoxy)]phosphinyloxymethyl-2-oxo-2,3-dihydro-1,3-benzoxazol-5-yl}-N2-(3,4,5-trimethyl)phenyl-5-methyl-2,4-pyrimidinediamine] yielded an IC50 of 5 to 10 µM.
